Results taken from patent publication US7550485B2, “Substituted N-heterocycle derivatives and methods of their use” (Wyeth, priority 2003, dated 2009).
Counter-ions that a name gives are not always drawn.

Target: T1, hNET (Homo sapiens, UniProt P23975)
T1 construct: expressed in transfected cells
Assay: Norepinephrine (NE) uptake assay in MDCK-Net6 cells stably transfected with human hNET
Assay type: cell-based
Settings: [3H]NE uptake; for inhibition at 1 µM: MDCK-Net6, 1 μM test compound; for EC50: test range 1 to 10,000 nM
In short: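 MDCK-Net6 cells preincubated 20 min at 37 °C with compound (1 to 10,000 nM) in HEPES buffer pH 7.4 with pargyline and ascorbate, then 5 min [3H]NE uptake (120 nM final). Lysed cells counted by scintillation; 1 μM desipramine defined minimum uptake; EC50 from logistic fit of pooled data.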

T1 sequence (P23975 whole entry): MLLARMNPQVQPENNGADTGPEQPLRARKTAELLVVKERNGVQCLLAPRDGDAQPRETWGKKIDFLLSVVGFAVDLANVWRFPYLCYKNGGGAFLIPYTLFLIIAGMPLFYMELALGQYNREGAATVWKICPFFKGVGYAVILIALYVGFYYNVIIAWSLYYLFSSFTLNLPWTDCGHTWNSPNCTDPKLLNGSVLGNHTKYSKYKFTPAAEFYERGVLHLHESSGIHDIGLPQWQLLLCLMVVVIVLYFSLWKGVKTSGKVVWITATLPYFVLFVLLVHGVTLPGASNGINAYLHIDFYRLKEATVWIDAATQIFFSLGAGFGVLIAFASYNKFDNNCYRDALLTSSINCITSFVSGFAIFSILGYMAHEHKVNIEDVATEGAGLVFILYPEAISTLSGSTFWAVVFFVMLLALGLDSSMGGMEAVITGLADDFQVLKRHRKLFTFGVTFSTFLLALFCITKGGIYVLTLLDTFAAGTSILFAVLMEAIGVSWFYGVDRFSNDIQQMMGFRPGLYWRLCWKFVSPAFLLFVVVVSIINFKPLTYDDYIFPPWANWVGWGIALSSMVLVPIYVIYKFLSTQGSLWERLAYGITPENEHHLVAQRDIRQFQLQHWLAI

inhibition at 1 µM [%]	EC50 [µM]	Structure (SMILES)
3		NC1CCN(CC(c2cccc(Cl)c2)C2(O)CCC3CCCCC3C2)CC1 (stereo not drawn) [Example 327, 2-[2-(4-aminopiperidin-1-yl-1-(3-chlorophenyl)ethyl]decahydronaphthalen-2-oldihydrochloride]
63.9		N[C@H]1CCN(CC(c2cccc(C(F)(F)F)c2)C2(O)CCCCC2)C1 (stereo partly drawn) [Example 221, 1-{2-[(3S)-3-aminopyrrolidin-1-yl]-1-[3-(trifluoromethyl)phenyl]ethyl}cyclohexanol dihydrochloride]
90		N[C@@H]1CCN(CC(c2ccc(OCc3ccccc3)c(Cl)c2)C2(O)CCCCC2)C1 (stereo partly drawn) [Example 383, 1-{2-[(3R)-3-aminopyrrolidin-1-yl]-1-[4-(benzyloxy)-3-chlorophenyl]ethyl}cyclohexanol dihydrochloride]
49.9		NC1CCN(CC(c2ccc(OC(F)(F)F)cc2)C2(O)CCC2)CC1 (stereo not drawn) [Example 305, 1-{2-(4-aminopiperidin-1-yl)-1-[4-(trifluoromethoxy)phenyl]ethyl}cyclobutanol dihydrochloride]
92	0.11	NC1CCN(CC(c2ccc(OCc3ccccc3)c(Cl)c2)C2(O)CCCCC2)CC1 (stereo not drawn) [Example 428, 1-{2-(4-aminopiperidin-1-yl)-1-[4-(benzyloxy)-3-chlorophenyl]ethyl}cyclohexanol dihydrochloride]
84		CN(C)[C@@H]1CCN(CC(c2cccc(C(F)(F)F)c2)C2(O)CCCCC2)C1 (stereo partly drawn) [Example 225, 1-{2-[(3R)-3-(dimethylamino)pyrrolidin-1-yl]-1-[3-(trifluoromethyl)phenyl]ethyl}cyclohexanol dihydrochloride]
93	0.18	COc1ccc(C(CN2CCC(N3CCCC3)CC2)C2(O)CCCCC2)cc1Br (stereo not drawn) [Example 9, 1-[1-(3-bromo-4-methoxyphenyl)-2-(4-pyrrolidin-1-ylpiperidin-1-yl)ethyl]cyclohexanol dihydrochloride]
53.1		CN(C)[C@@H]1CCN(CC(c2cccc(OC(F)(F)F)c2)C2(O)CCCCC2)C1 (stereo partly drawn) [Example 219, 1-{2-[(3R)-3-(dimethylamino)pyrrolidin-1-yl]-1-[3-(trifluoromethoxy)phenyl]ethyl}cyclohexanol dihydrochloride]

Second part, the compound before the results:

Structure (SMILES)	inhibition at 1 µM [%]	EC50 [µM]
CN[C@@H]1CCN(CC(c2cccc3ccccc23)C2(O)CCCCC2)C1 (stereo partly drawn) [Example 379, 1-[2-[(3R)-3-(methylamino)pyrrolidin-1-yl]-1-(1-naphthyl)ethyl]cyclohexanol dihydrochloride]	19	
CN(C)[C@@H]1CCN(CC(c2cccc3ccccc23)C2(O)CCCCC2)C1 (stereo partly drawn) [Example 378, 1-[2-[(3R)-3-(dimethylamino)pyrrolidin-1-yl]-1-(1-naphthyl)ethyl]cyclohexanol dihydrochloride]	28	
OC1(C(CN2CCC(N3CCCC3)CC2)c2cccc(Cl)c2)CCCCC1 (stereo not drawn) [Example 3, 1-[1-(3-chlorophenyl)-2-(4-pyrrolidin-1-ylpiperidin-1-yl)ethyl]cyclohexanol dihydrochloride]	100	0.053
OC1(C(CN2CCC(N3CCCCC3)CC2)c2cccc(Cl)c2)CCCCC1 (stereo not drawn) [Example 2, 1-[2-(1,4′-bipiperidin-1′-yl)-1-(3-chlorophenyl)ethyl]cyclohexanol dihydrochloride]	100	0.045
NC1CCN(CC(c2ccc(OC(F)(F)F)cc2)C2(O)CCCCC2)CC1 (stereo not drawn) [Example 303, 1-{2-(4-aminopiperidin-1-yl)-1-[4-(trifluoromethoxy)phenyl]ethyl}cyclohexanol dihydrochloride]	18.7	
CN(C)C1CCN(CC(c2cccc(Cl)c2)C2CCCCC2)CC1 (stereo not drawn) [Example 233, 1-[2-(3-chlorophenyl)-2-cyclohexylethyl]-N,N-dimethylpiperidin-4-amine dihydrochloride]	91.1	
COc1ccc(C(CN2CCC(N)CC2)C2(O)CCCCC2)cc1Br (stereo not drawn) [Example 25, 1-[2-(4-aminopiperidin-1-yl)-1-(3-bromo-4-methoxyphenyl)ethyl]cyclohexanol dihydrochloride]	85	0.2
CNC1CCN(CC(c2cccc(Cl)c2)C2CCCCC2)CC1 (stereo not drawn) [Example 232, 1-[2-(3-chlorophenyl)-2-cyclohexylethyl]-N-methylpiperidin-4-amine dihydrochloride]	79.1	
